Read-outs that look alike come from different tables or passages of the source.
Assays:
[1] = tested on: women with dramatic vasomotor hot flashes and sleep disruption; assay: Clinical study of six women with vasomotor hot flashes and sleep disruption, symptoms graded 0-4; assay type: in vivo; settings: for effect on vasomotor / hot flash symptoms (in words) / effect on sleep (in words): six women, agent alone; for effect on vasomotor / hot flash symptoms (in words): versus untreated; for Hot Flash Severity: grade 0-4 (duration), average of six women; for Hot Flash Frequency: end of treatment period (up to four weeks), ropinirole 4 mg, tizanidine 4 mg, clonidine 0.1 mg, rotigotine 1 mg, pramipexole 1.5 mg, chlorpromazine 25 mg, haloperidol 1 mg, venlafaxine 75 mg, paroxetine 20 mg, gabapentin 300 mg, pregabilin 50 mg
Protocol: Patients were on each regimen at the doses cited for up to four weeks.
Symptoms were evaluated on a scale from 0 to 4, with 0 being not affected, 1 being mild, 2 being moderate, 3 being severe, and 4 being a very severe expression of either vasomotor symptom frequency, severity, sweating, falling asleep and waking during the night for each patient and evaluated at the end of the treatment period. The findings reported are based on an average of the reported symptoms of the six women studied.
Specifically, regarding hot flash frequency, evaluation was based upon the number of hot flashes per day. The frequency of hot flashes was graded on a scale of 0-4, with 0 as none detected, 1 as 1-4/day (mild), 2 as 5-8/day (moderate), 3 as 9-12/day (severe), and 4 as more than 12/day (very severe).
The severity of the hot flashes, reflecting hot flash duration, was also graded on a scale of 0-4, with 0 being not detected, 1 being mild (less than 1 minute), 2 moderate (1-2 minutes), 3 severe (2-3 minutes), and 4 very severe (greater than 4 minutes). This evaluation reflects the duration and intensity as rated by the individual.
The sweating response was graded on a scale of 0-4 as well, with 0 being not detected, 1 being mild (minimally moist skin), 2 moderate (moisture of the skin), 3 severe (noticeable perspiration, hair, ears, neck, chest), and 4 very severe (soaking sweat).
Falling asleep was also graded on a scale of 0-4, with 0 being no issue (less than 15 minutes), 1 being mild (15-20 minutes), 2 moderate (20-40 minutes), 3 severe (40-60 minutes), and 4 very severe (greater than 60 minutes).
Wakings were graded on a scale of 0-4 as well, with 0 being not detected, 1 being mild (1-5 wakings/night), 2 moderate (5-10 wakings/night), 3 severe (10-15 wakings/night), and 4 very severe (greater than 15 wakings/night).
The D2 receptor family (D2, D3 or D4) agonists ropinirole, rotigotine and pramipexole were examined, and contrasted with D2 receptor family antagonists chlorpromazine or haloperidol. Ropinirole and pramipexole were evaluated alone and with either alpha-2-adrenergic agonist tizanidine or clonidine.
Venlafaxine, paroxetine, gabapentin, and pregabilin were also evaluated in comparison with tizanidine.

[2] = tested on: women with menopausal symptoms including hot flashes; settings: for hot flashes under existing medication: already treated for neuropathic pain and depression; for benefit in sleep cycle: standard sedative hypnotics for insomnia
Protocol: The patients were treated by escalating the dose of ropinirole to 4 mg, testing the hypothesis of a dopaminergically regulated pathway within the central nervous system which impacts hot flashes.
Therefore, the initial dose provided was 1 mg at bedtime, and the dose was raised as needed, every fourth day, to a maximum of 8 mg, if needed, usually at bedtime.
Safety monitoring included making certain there were no issues with liver function, low blood pressure or unusual dreams as this was accomplished. Tizanidine could, if needed, be dosed again during the night without causing a morning “hangover” effect providing there was a four hour sleep window available.
Ropinirole titration was initiated with 0.25 mg at bedtime, and if tolerated, by escalating the dose by 0.25 mg every fourth day to a maximum of 1 mg (i.e., 0.25 mg, 0.50 mg, 0.75 mg, 1 mg), until there was reduction in both the frequency and severity of hot flashes. If higher doses were needed, then both 1 mg, or later 2 mg and both 1 and 2 mg ropinirole tablets were used along with the continued titration by 0.25 mg steps every fourth day until a maximum of 4 mg was reached.

[3] = tested on: women with menopausal vasomotor symptoms and sleep disruption; assay: Clinical study of eight women with menopausal vasomotor symptoms and sleep disruption, symptoms graded 1-4; assay type: in vivo; settings: for effect on vasomotor symptoms (in words) / effect on sleep (in words): eight women; for effect on sleep (in words): agent alone; for Hot Flash Frequency / Sweating / Wakings / Falling Asleep / Hot Flash Severity: grade 1-4, average of eight women, ropinirole 4 mg, tizanidine 4 mg, ramelteon 8 mg; for Hot Flash Frequency: at bedtime for at least four weeks; for Hot Flash Frequency / Falling Asleep / Hot Flash Severity: untreated = 4; for Sweating / Wakings / Falling Asleep / Hot Flash Severity: at least four weeks; for Sweating / Wakings: untreated = 3
Protocol: Patients were on each regimen at the doses cited for at least four weeks.
Symptoms were evaluated on a scale from 1 to 4, with 1 being mild, 2 being moderate, 3 being severe, and 4 being a very severe expression of either vasomotor symptom frequency, severity, sweating, falling asleep and wakings during the night were evaluated for each patient and evaluate at the end of the treatment period. The findings were based on an average of the reported symptoms of the eight women studied.
Specifically with respect to hot flash frequency, evaluation was based upon the number of hot flashes per day. The frequency of the hot flashes was graded on a scale of 1-4, with 1 as 1-4/day (mild), 2 as 5-8/day (moderate), 3 as 9-12/day (severe), and 4 as more than 12/day (very severe).
The severity of the hot flashes was graded on a scale of 1-4, with 1 being mild (less than 1 minute), 2 moderate (1-2 minutes), 3 severe (2-3 minutes), and 4 very severe (greater than 4 minutes). This evaluation reflects the duration and intensity as rated by the individual.
The sweating response was graded on a scale of 1-4, with 1 being mild (minimally moist skin), 2 moderate (moisture on skin), 3 severe (noticeable perspiration, hair, ears, neck, chest), and 4 very severe (soaking sweat).
Falling asleep was graded on a scale of 1-4, with 1 being mild (15-20 minutes), 2 moderate (20-40 minutes), 3 severe (40-60 minutes), and 4 very severe (greater than 60 minutes).
Wakings were graded on a scale of 1-4, with 1 being mild (1-5 wakings/night), 2 moderate (5-10 wakings/night), 3 severe (10-15 wakings/night), and 4 very severe (greater than 15 wakings/night).

[4] = tested on: hot flashes, including vasomotor symptoms of menopause; assay: Observed activity of D2 family agonists tested in controlling hot flashes; assay type: in vivo; settings: D2 family members tested to date
[5] = up to four weeks, untreated = 3
[6] = grade 0-4, average of six women, untreated = 3
[7] = patients of the case studies, ropinirole escalated from 0.25 mg to 4 mg at bedtime

CN(C)CCCN1c2ccccc2Sc2ccc(Cl)cc21 [Chlorpromazine, chlorpromazine]
effect on vasomotor / hot flash symptoms (in words) [1]: aggravated menopausal symptoms

Clc1cccc(Cl)c1N=C1NCCN1 [Clonidine, clonidine]
effect on sleep (in words) [1]: impressive effect on sleep
effect on vasomotor / hot flash symptoms (in words) [1]: very modest reduction in vasomotor symptoms
hot flashes under existing medication ([2]; patient two): developed these hot flash symptoms despite those medications

NCC1(CC(=O)O)CCCCC1 [Gabapentin, gabapentin]
effect on vasomotor / hot flash symptoms (in words) [1]: reduced hot flash symptoms over untreated patients
hot flashes under existing medication ([2]; patient two): developed these hot flash symptoms despite those medications

O=C(CCCN1CCC(O)(c2ccc(Cl)cc2)CC1)c1ccc(F)cc1 [Haloperidol, haloperidol]
effect on vasomotor / hot flash symptoms (in words) [1]: aggravated menopausal symptoms

Fc1ccc([C@@H]2CCNC[C@H]2COc2ccc3c(c2)OCO3)cc1 [Paroxetine, paroxetine]
effect on vasomotor / hot flash symptoms (in words) [1]: reduced hot flash symptoms over untreated patients

CCCN[C@H]1CCc2nc(N)sc2C1 [Pramipexole]
Hot Flash Severity [1, 5]: 0
Hot Flash Frequency [1, 6]: 0

CC(C)C[C@H](CN)CC(=O)O [Pregabilin, pregabalin]
effect on vasomotor / hot flash symptoms (in words) [1]: reduced hot flash symptoms over untreated patients

CCC(=O)NCC[C@@H]1CCc2ccc3c(c21)CCO3 [Ramelteon, ramelteon]
effect on vasomotor symptoms (in words) [3]: no impact on vasomotor symptoms
effect on sleep (in words) [3]: only a limited impact on sleep
Hot Flash Frequency [3]: 4 (4 as more than 12/day (very severe))
Sweating [3]: 3
Wakings [3]: 3 (3 severe (10-15 wakings/night))
Falling Asleep [3]: 3 (3 severe (40-60 minutes))
Hot Flash Severity [3]: 4 (4 very severe (greater than 4 minutes))

CCCN(CCC)CCc1cccc2c1CC(=O)N2 [Ropinirole, ropinirole]
effect on vasomotor symptoms (in words) [3]: notable, but incomplete reduction in frequency and severity of vasomotor symptoms
effect on sleep (in words) [3]: limited impact on sleep
Hot Flash Frequency [3]: 1 (1 as 1-4/day (mild))
Sweating [3]: 1
Wakings [3]: 3 (3 severe (10-15 wakings/night))
Falling Asleep [3]: 3 (3 severe (40-60 minutes))
Hot Flash Severity [3]: 1 (1 being mild (less than 1 minute))
activity in controlling hot flashes [4]: unique activity
Hot Flash Severity [1, 5]: 0
Hot Flash Frequency [1, 6]: 0
effect on sleep (in words) [1]: limited impact on sleep
effect on vasomotor / hot flash symptoms (in words) [1]: notable reduction in frequency and severity of vasomotor symptoms
side effects ([2]; patient one, ropinirole 4 mg daily at bedtime with tizanidine 8 mg): without side effects
vasomotor symptoms (hot flashes) ([2]; patient one, ropinirole 4 mg daily at bedtime with tizanidine 8 mg at bedtime, 15-20 hot flashes per day before): totally eliminated the vasomotor symptoms (hot flashes)
hot flashes on re-administration after removal ([2]; patient three, ropinirole removed (symptoms returned) and re-administered at 4 mg): the hot flashes once again disappeared
side effects ([2]; patient two, ropinirole 4 mg at bedtime with tizanidine 8 mg): without untoward side effects
frequency and severity of hot flashes ([2]; patient two, ropinirole 4 mg at bedtime with tizanidine 8 mg at bedtime, 10-15 hot flashes per day before): complete resolution of the frequency and severity of the hot flashes
effect on hot flashes of menopause [2, 7]: dramatic shutdown of previously intolerable hot flashes of menopause
side effects [2, 7]: without side effects

CCCN(CCc1cccs1)[C@H]1CCc2c(O)cccc2C1 [Rotigitine, rotigotine]
activity in controlling hot flashes [4]: unique activity
Hot Flash Severity [1, 5]: 0
Hot Flash Frequency [1, 6]: 0
Falling Asleep ([1]; grade 0-4, average of six women, up to four weeks, untreated = 2): 0 (0 being no issue (less than 15 minutes))
Sweating ([1]; grade 0-4, average of six women, up to four weeks, untreated = 3): 0
Wakings ([1]; grade 0-4, average of six women, up to four weeks, untreated = 4): 1 (1 being mild (1-5 wakings/night))
effect on sleep (in words) [1]: limited impact on sleep
effect on vasomotor / hot flash symptoms (in words) [1]: notable reduction in frequency and severity of vasomotor symptoms

Clc1ccc2nsnc2c1NC1=NCCN1 [Tizanidine, tizanidine]
effect on vasomotor symptoms (in words) [3]: very modest reduction in vasomotor symptoms
effect on sleep (in words) [3]: more impressive effect on sleep
Hot Flash Frequency [3]: 3 (3 as 9-12/day (severe))
Sweating [3]: 3
Wakings [3]: 2 (2 moderate (5-10 wakings/night))
Falling Asleep [3]: 2 (2 moderate (20-40 minutes))
Hot Flash Severity [3]: 3 (3 severe (2-3 minutes))
effect on sleep (in words) [1]: impressive effect on sleep
effect on vasomotor / hot flash symptoms (in words) [1]: very modest reduction in vasomotor symptoms
sleep ([2]; patient one, tizanidine 8 mg at bedtime): facilitate sleep, which it did
sleep ([2]; patient three, tizanidine 1 mg raised up to 8 mg at bedtime): able to sleep through the night

COc1ccc(C(CN(C)C)C2(O)CCCCC2)cc1 (stereo not shown) [Venlafaxine]
effect on vasomotor / hot flash symptoms (in words) [1]: reduced hot flash symptoms over untreated patients
hot flashes under existing medication ([2]; patient two): developed these hot flash symptoms despite those medications

CC(C)(C#N)c1cc(Cn2cncn2)cc(C(C)(C)C#N)c1 [anastrozole]
effect on hot flashes (side effect of aromatase inhibitor) ([2]; patient three, anastrozole 1 mg daily): exacerbated the hot flashes

O=C1CN=C(c2ccccc2Cl)c2cc([N+](=O)[O-])ccc2N1 [clonazepam]
benefit in sleep cycle ([2]; patient three): no significant benefit in sleep cycle

c1cnc(N2CCN(Cc3ccc4c(c3)OCO4)CC2)nc1 [piribedil]
activity in controlling hot flashes [4]: unique activity

CN1C(=O)C(O)N=C(c2ccccc2)c2cc(Cl)ccc21 (stereo not shown) [temazepam]
benefit in sleep cycle ([2]; patient three): no significant benefit in sleep cycle

CCN(C(C)=O)c1cccc(-c2ccnc3c(C#N)cnn23)c1 [zaleplon]
benefit in sleep cycle ([2]; patient three): no significant benefit in sleep cycle

Cc1ccc(-c2nc3ccc(C)cn3c2CC(=O)N(C)C)cc1 [zolpidem]
benefit in sleep cycle ([2]; patient three): no significant benefit in sleep cycle

Reference: patent US11903926B1, “Non-hormonal treatment of hot flashes” (priority 2012, dated 2024)
